For one series, the target named is CYP3A4 (Homo sapiens, UniProt P08684). The experiment in a line: Inhibition of CYP3A4 catalytic activity by 25(R)-OCH3-PPD. It counts as in vitro ADME.
The conditions of series [1]: rat, in vivo, 10 mg/kg; cited from earlier work.
Series [2] concerns human liver microsomes (HLM). The experiment in a line: Metabolite formation in human liver microsomes, 60 min. In kind it is in vitro ADME. The conditions noted are these: HLM 1 mg/ml, 50 µM 25(R)-OCH3-PPD, NADPH. As for the experimental part: (§1) 25(R)-OCH3-PPD were incubated in hepatic microsomes to examine the potential P450-mediated metabolism. Stock solutions of 2 mM 25(R)-OCH3-PPD was prepared in methanol. The final methanol concentration in the incubation was 2.5% (v/v). The liver microsomes were carefully thawed on ice before the experiment.
(§2) For NADPH dependent oxidative metabolism study, the reaction media contained 1 mg/ml of microsomal proteins, 10 mM G-6-P, 10 mM MgCl2, 1 U/ml G-6-PDH, 50 µM concentration of 25(R)-OCH3-PPD in potassium phosphate buffer (pH 7.4; 0.1 M) in a total volume of 200 µl. Negative control incubations containing no NADPH-regenerating system were conducted. All incubations were performed at 37°C in a shaking water bath for 60 min.
(§3) After 5 min preincubation at 37°C, the incubation reactions were initiated with the addition of microsome proteins. After undergoing incubation for 60 min, the reactions were terminated with an equal volume of ice-cold acetonitrile and 10 µl diazepam (5 µg/ml, internal standard) was added. This sample was vortex-mixed and centrifuged at 14,000 g for 5 min. […] The residue was reconstituted in 100 µl of methanol with 0.1% formic acid, centrifuged 10 min at 18000 rpm and then an aliquot 5 µL of the supernatant was directly injected onto the HPLC-MS system for quanlitative or quantitative analysis.

In series [3] the test system is mouse liver microsomes (MLM). The experiment in a line: Metabolite formation in mouse liver microsomes, 60 min. In kind it is in vitro ADME, CD-1 mice. As to conditions: MLM 1 mg/ml, 50 µM 25(R)-OCH3-PPD, NADPH. Here is the method:
as §1, §2, §3

Series [4] concerns cynomolgus monkey liver microsomes (CyLM). The experiment in a line: Metabolite formation in monkey liver microsomes, 60 min. It counts as in vitro ADME. The conditions noted are these: CyLM 1 mg/ml, 50 µM 25(R)-OCH3-PPD, NADPH. Here is the method: as §1, §2, §3
Series [5] deals with dog liver microsomes (DLM). The experiment in a line: Metabolite formation in dog liver microsomes, 60 min. In kind it is in vitro ADME, beagles. As to conditions: DLM 1 mg/ml, 50 µM 25(R)-OCH3-PPD, NADPH. Here is the method: as §1, §2, §3
In series [6] the test system is rat liver microsomes (RLM). The experiment in a line: Metabolite formation in rat liver microsomes, 60 min. It counts as in vitro ADME, Sprague-Dawley rats. As to conditions: RLM 1 mg/ml, 50 µM 25(R)-OCH3-PPD, NADPH. Here is the method:
as §1, §2, §3

For the next series, the system named is CYP3A. The experiment in a line: Chemical inhibition study in human hepatic microsomes (ketoconazole). It counts as in vitro ADME. Here is the method:
The chemical inhibition study was performed by adding each of the specific inhibitors of P450 enzymes into the incubation of 25(R)-OCH3-PPD (3 or 10 µM) in 0.25 mg/ml HLM incubation systems containing an NADPH-regenerations system as described above. The chemical inhibitors and concentration were selected on the basis of previous reports and are as follows: α-naphthoflavone (10.0 µM) for CYP1A2, quercetin (10 µM) for CYP2C8, sulfaphenazole (10.0 µM) for CYP2C9, ticlopidine (5 µM) for CYP2C19, quinidine (10.0 µM) CYP2D6, diethyl dithiocarbamate (20 µM) for CYP2E1, and ketoconazole (0.1, 0.25, 0.5, 1 and 5 µM) for CYP3A.
The inhibitors were dissolved in dimethyl sulfoxide, and the final concentration of dimethyl sulfoxide in the incubation was 1% (v/v). The final incubation volume was 200 µl. Microsomes were preincubated for 5 min with a NADPH-regenerating system at 37°C, the reactions were initiated with the addition of 25(R)-OCH3-PPD and inhibitor. The reactions were terminated with an equal volume of ice-cold acetonitrile after 30 min of incubation. Parallel incubations without chemical inhibitors served as control. Samples were prepared as mentioned above to measure the concentration of parent and the metabolites by HPLC-MS/MS analysis.

Structures are written as SMILES.

Chain of CYP3A4 (P08684 whole entry): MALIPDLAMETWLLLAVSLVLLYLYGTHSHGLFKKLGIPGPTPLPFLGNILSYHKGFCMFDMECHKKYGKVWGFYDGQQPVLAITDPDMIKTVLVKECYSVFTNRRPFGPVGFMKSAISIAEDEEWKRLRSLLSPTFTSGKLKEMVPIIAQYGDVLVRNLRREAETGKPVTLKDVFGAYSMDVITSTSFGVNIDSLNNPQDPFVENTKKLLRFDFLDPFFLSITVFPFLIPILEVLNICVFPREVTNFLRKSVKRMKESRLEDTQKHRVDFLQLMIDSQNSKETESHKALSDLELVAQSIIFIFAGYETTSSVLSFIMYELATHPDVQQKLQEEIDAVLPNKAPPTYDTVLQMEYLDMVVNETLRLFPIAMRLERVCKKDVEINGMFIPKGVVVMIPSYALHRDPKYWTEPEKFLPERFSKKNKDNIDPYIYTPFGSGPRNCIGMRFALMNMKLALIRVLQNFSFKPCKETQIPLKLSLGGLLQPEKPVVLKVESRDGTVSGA

In the case of `COC(C)(C)CCC[C@@](C)(O)C1CC[C@]2(C)C1[C@H](O)CC1[C@@]3(C)CC[C@H](O)C(C)(C)C3CC[C@]12C` (stereo partly drawn) [25(R)-OCH3-PPD, 20(R)-25-methoxyl-dammarane-3β, 12β, 20-triol], the “inhibition of the CYP3A4 catalytic activity” value against CYP3A4 was “NADPH and concentration-dependent”.
Consider `COC(C)(C)CCC[C@](C)(O)[C@H]1CC[C@]2(C)[C@@H]1[C@H](O)C[C@@H]1[C@@]3(C)CC[C@H](O)C(C)(C)[C@@H]3CC[C@]12C` [25(S)-OCH3-PPD, 20(S)-25-methoxyl-dammarane-3beta, 12beta, 20-triol], for which the absolute bioavailability in series [1] is recorded as 19.7%.
For the compound `CC(C)(O)CCC[C@@](C)(O)C1CC[C@]2(C)C1[C@H](O)CC1[C@@]3(C)CC[C@H](O)C(C)(C)C3CC[C@]12C` (stereo partly drawn) [Metabolite M1], the “relative amount of metabolite formed” value in series [2] is recorded as “minor metabolite”; in series [3] it was “dominant metabolite”; in series [4] it was “minor metabolite”; in series [5] it was “intermediate relative amount”; in series [6] it was “dominant metabolite”.
Turning to `CC(=O)N1CCN(c2ccc(OCC3COC(Cn4ccnc4)(c4ccc(Cl)cc4Cl)O3)cc2)CC1` (stereo not drawn) [ketoconazole], in the series on CYP3A (HLM 0.25 mg/ml, 25(R)-OCH3-PPD 10 µM, 30 min), the “effect on the oxidative metabolism of 25(R)-OCH3-PPD” value is “significant inhibitory effect”. For the same compound, the “inhibition of formation of M5” value in the series on CYP3A (HLM, ketoconazole 0.1 µM) is “completely”. The “effect on formation of M1 and M6” value is “inhibited” with CYP3A (HLM, ketoconazole 5 µM) and “activated” in the series with CYP3A (HLM, ketoconazole 0.1–1 µM). In addition, in the series with CYP3A (HLM, ketoconazole 0.1-5 µM, concentration dependent), the “effect on formation of M2, M3, M4, M5, M7” value was “inhibited”.

Values taken from article PMC3988085, “In Vitro Metabolism of 20(R)-25-Methoxyl-Dammarane-3, 12, 20-Triol from Panax notoginseng in Human, Monkey, Dog, Rat, and Mouse Liver Microsomes” (PLoS ONE, 2014).
